In patent US20140079836A1, “METHODS AND COMPOSITIONS FOR ALTERING HEALTH, WELLBEING, AND LIFESPAN” (LifeSpan Extension, LLC, priority 2008, published 2014):

Tested on: Custom Array II Genes
Assay: Custom Array II gene expression, antioxidant alone or + UVB
Assay type: cell-based

## COC1=C(OC)C(=O)C(CCCCCCCCCCO)=C(C)C1=O [Idebenone, 6-(10-hydroxydecyl)-2,3-dimethoxy-5-methyl-1,4-benzoquin-one]
+ UVB
  ACE (NM_000789) Expression: −1.1
  ACTB (NM_001101) Expression: −1.1
  APOE (NM_000041) Expression: −1.2
  BAX (NM_004324) Expression: 1.3
  BCL2 (NM_000633) Expression: 1.6
  BCL2L1 (NM_138578) Expression: 1.0
  BMP2 (NM_001200) Expression: −1.7
  CASP2 (NM_032982) Expression: −1.3
  CASP9 (NM_001229) Expression: 1.0
  CCL4L1 (NM_001001435) Expression: 1.2
  CDKN2A (NM_000077) Expression: −1.0
  CLK1 (NM_004071) Expression: −1.1
  COL1A1 (NM_000088) Expression: −1.0
  COL3A1 (NM_000090) Expression: −1.2
  COX1 (NP_536845) Expression: 1.5
  CREBBP (NM_004380) Expression: −1.1
  CRP (NM_000567) Expression: 1.0
  CYP19A1 (NM_000103) Expression: 1.0
  DDC (NM_000790) Expression: 1.0
  DUSP2 (NM_004418) Expression: 1.1
  EGF (NM_001963) Expression: 1.0
  EGR2 (NM_000399) Expression: 1.7
  FOS (NM_005252) Expression: −1.4
  FOXO3 (NM_001455) Expression: −1.3
  GADPH (NM_002046) Expression: −1.2
  GCH1 (NM_000161) Expression: −1.7
  GH1 (NM_000515) Expression: 1.3
  GPX1 (NM_000581) Expression: −1.1
  HBEGF (NM_001945) Expression: 1.8
  HGDC (SA_00105) Expression: 1.1
  HLA-DRA (NM_019111) Expression: 1.0
  HMOX1 (NM_002133) Expression: 1.0
  HPRT1 (NM_000194) Expression: 1.3
  HSPA1A (NM_005345) Expression: −1.3
  HSPA1B (NM_005346) Expression: −1.3
  HSPA1L (NM_005527) Expression: −1.1
  HSPA6 (NM_002155) Expression: −1.8
  IFI44 (NM_006417) Expression: 1.0
  IGF1 (NM_000618) Expression: 1.1
  IGF2 (NM_000612) Expression: 1.0
  IL1A (NM_000575) Expression: 1.0
  IL6 (NM_000600) Expression: 1.5
  IL8 (NM_000584) Expression: 1.0
  IL10 (NM_000572) Expression: 1.1
  IL11 (NM_000641) Expression: 1.1
  IL33 (NM_033439) Expression: 2.3
  IMMP1L (NM_144981) Expression: 1.2
  JUN (NM_002228) Expression: −1.1
  KIT (NM_000222) Expression: 1.4
  KL (NM_004795) Expression: 1.0
  KRAS (NM_004985) Expression: 1.0
  MAPK14 (NM_001315) Expression: −1.4
  MMP1 (NM_002421) Expression: 1.0
  NADSYN1 (NM_018161) Expression: −1.1
  NEIL1 (NM_024608) Expression: 1.0
  NFKB1 (NM_003998) Expression: −1.1
  NOS1 (NM_000620) Expression: 1.2
  NOS2 (NM_000625) Expression: 1.0
  NOS3 (NM_000603) Expression: −1.0
  PARP1 (NM_001618) Expression: 1.0
  PARP2 (NM_005484) Expression: 1.2
  PARP3 (NM_005485) Expression: 1.1
  PARP4 (NM_006437) Expression: 4.7
  PARP9 (NM_031458) Expression: −1.1
  PDGFRL (NM_006207) Expression: 1.2
  POT1 (NM_015450) Expression: 1.2
  PPARG (NM_015869) Expression: −1.2
  PPARGC1 (NM_013261) Expression: −1.2
  PPC (SA_00103) Expression: 1.0
  PTGS2 (NM_000963) Expression: 1.3
  RAP1A (NM_002884) Expression: −1.2
  RTC (SA_00104) Expression: 1.2
  S100A7 (NM_002963) Expression: 1.3
  SERPINB (NM_002575) Expression: 1.0
  SHC1 (NM_003029) Expression: −1.1
  SIRT1 (NM_012238) Expression: 1.1
  SIRT2 (NM_012237) Expression: −1.1
  SIRT3 (NM_012239) Expression: −1.2
  SIRT4 (NM_012240) Expression: 1.0
  SOD1 (NM_000454) Expression: −1.1
  SOD2 (NM_000636) Expression: 1.0
  TEP1 (NM_007110) Expression: 1.1
  TERF2 (NM_005652) Expression: −1.1
  TERT (NM_198255) Expression: −1.3
  TGFB1 (NM_000660) Expression: −1.2
  TIMM22 (NM_013337) Expression: −1.1
  TIMP3 (NM_000362) Expression: −1.3
  TINF2 (NM_012461) Expression: 1.1
  TNF (NM_000594) Expression: −2.6
  TOMM40 (NM_006114) Expression: −1.8
  TP53 (NM_000546) Expression: −1.3
  TPP1 (NM_000391) Expression: 1.0
  UBE2S (NM_014501) Expression: −1.3
  VEGFA (NM_003376) Expression: −1.3
Alone
  ACE (NM_000789) Expression: −1.0
  ACTB (NM_001101) Expression: 1.0
  APOE (NM_000041) Expression: 1.0
  BAX (NM_004324) Expression: 1.3
  BCL2 (NM_000633) Expression: 1.2
  BCL2L1 (NM_138578) Expression: 1.0
  BMP2 (NM_001200) Expression: 1.1
  CASP2 (NM_032982) Expression: 1.0
  CASP9 (NM_001229) Expression: −1.0
  CCL4L1 (NM_001001435) Expression: 1.0
  CDKN2A (NM_000077) Expression: 1.0
  CLK1 (NM_004071) Expression: 1.0
  COL1A1 (NM_000088) Expression: 1.0
  COL3A1 (NM_000090) Expression: −1.1
  COX1 (NP_536845) Expression: 1.0
  CREBBP (NM_004380) Expression: 1.0
  CRP (NM_000567) Expression: −1.0
  CYP19A1 (NM_000103) Expression: 1.4
  DDC (NM_000790) Expression: 1.0
  DUSP2 (NM_004418) Expression: 1.0
  EGF (NM_001963) Expression: 1.0
  EGR2 (NM_000399) Expression: 1.0
  FOS (NM_005252) Expression: 1.0
  FOXO3 (NM_001455) Expression: 1.0
  GADPH (NM_002046) Expression: 1.3
  GCH1 (NM_000161) Expression: 1.0
  GH1 (NM_000515) Expression: 1.0
  GPX1 (NM_000581) Expression: 1.0
  HBEGF (NM_001945) Expression: 1.0
  HGDC (SA_00105) Expression: 1.2
  HLA-DRA (NM_019111) Expression: 1.0
  HMOX1 (NM_002133) Expression: −1.0
  HPRT1 (NM_000194) Expression: 1.2
  HSPA1A (NM_005345) Expression: −1.0
  HSPA1B (NM_005346) Expression: −1.0
  HSPA1L (NM_005527) Expression: 1.0
  HSPA6 (NM_002155) Expression: −1.1
  IFI44 (NM_006417) Expression: −1.6
  IGF1 (NM_000618) Expression: 1.1
  IGF2 (NM_000612) Expression: 1.0
  IL1A (NM_000575) Expression: −1.0
  IL6 (NM_000600) Expression: −1.0
  IL8 (NM_000584) Expression: −1.2
  IL10 (NM_000572) Expression: 1.1
  IL11 (NM_000641) Expression: −1.1
  IL33 (NM_033439) Expression: −1.1
  IMMP1L (NM_144981) Expression: −1.0
  JUN (NM_002228) Expression: 1.0
  KIT (NM_000222) Expression: −1.3
  KL (NM_004795) Expression: 1.0
  KRAS (NM_004985) Expression: −1.4
  MAPK14 (NM_001315) Expression: 1.0
  MMP1 (NM_002421) Expression: 1.0
  NADSYN1 (NM_018161) Expression: 1.2
  NEIL1 (NM_024608) Expression: 1.5
  NFKB1 (NM_003998) Expression: −1.5
  NOS1 (NM_000620) Expression: 1.9
  NOS2 (NM_000625) Expression: 1.1
  NOS3 (NM_000603) Expression: 1.0
  PARP1 (NM_001618) Expression: 1.3
  PARP2 (NM_005484) Expression: 1.3
  PARP3 (NM_005485) Expression: −1.0
  PARP4 (NM_006437) Expression: 1.1
  PARP9 (NM_031458) Expression: 1.0
  PDGFRL (NM_006207) Expression: −1.1
  POT1 (NM_015450) Expression: −1.0
  PPARG (NM_015869) Expression: −1.0
  PPARGC1 (NM_013261) Expression: −1.0
  PPC (SA_00103) Expression: 1.0
  PTGS2 (NM_000963) Expression: −1.2
  RAP1A (NM_002884) Expression: 1.3
  RTC (SA_00104) Expression: 1.1
  S100A7 (NM_002963) Expression: 1.1
  SERPINB (NM_002575) Expression: 1.1
  SHC1 (NM_003029) Expression: −1.4
  SIRT1 (NM_012238) Expression: −1.2
  SIRT2 (NM_012237) Expression: −1.0
  SIRT3 (NM_012239) Expression: −1.1
  SIRT4 (NM_012240) Expression: 1.1
  SOD1 (NM_000454) Expression: −1.0
  SOD2 (NM_000636) Expression: −1.2
  TEP1 (NM_007110) Expression: 1.1
  TERF2 (NM_005652) Expression: 1.0
  TERT (NM_198255) Expression: 1.1
  TGFB1 (NM_000660) Expression: −1.1
  TIMM22 (NM_013337) Expression: 1.1
  TIMP3 (NM_000362) Expression: 1.2
  TINF2 (NM_012461) Expression: 1.1
  TNF (NM_000594) Expression: −1.1
  TOMM40 (NM_006114) Expression: 1.0
  TP53 (NM_000546) Expression: −1.1
  TPP1 (NM_000391) Expression: −1.1
  UBE2S (NM_014501) Expression: 1.2
  VEGFA (NM_003376) Expression: −1.7
